From paper PMC5379745, “Coordinating antigen cytosolic delivery and danger signaling to program potent cross-priming by micelle-based nanovaccine” (Cell Discovery, 2017)

Assays:
TC-1 cells = assay: Vaccination combined with cisplatin chemotherapy, TC-1 tumors; format: in vivo, C57BL/6 mice; settings: cisplatin 5 mg/kg i.v. three times, vaccine s.c. three times, with high dose tumor re-challenge, n=10
Description: To detect the LN targeting deliver y of pol ypeptide antigens by micelle, C57BL/6 mice were subcutaneousl y injected with 14.6 nmol different formulations of RhB labeled E7 peptide (E7, Pal-E7 and M-E7) at tail base. The DLNs were ex cised and digested into single cell suspension at 24h post-injection, the RhB+ DCs and Macrophages cells wer e detected b y flo w c ytom etr y.
Vaccination combined with cisplatin chemotherapy
C57BL/6 mice were inoculated subcutaneousl y with 5×10^4 TC-1 tumor cells. Two weeks later when the tumor volume reached 100 mm3 (day 0), tumor -bearing mice were treated with cisplatin (5mg/kg bod y weight) intravenousl y for three times at 5 days interval. On the same day of the last chemotherap y, mice were vaccinated subcutaneousl y with micelle vaccine or normal saline (NS) for three times at 7da ys interval. Tumor growth and tumor free rate was monitored twice per week.
Vaccination co mbined w ith surgical operation
C57BL/6 mice were injected subcutaneousl y on the right flank with 5×10^4 TC-1 tumor cells. One month later when the volume of tumor reached 1000mm 3 (day 0), mice were anesthetized and full resection was executed by excising the tumor using standard blunt dissection. Sterile silk sutures were used to close wounds.
Accompanied b y wound closure, mice were vaccinated subcutaneousl y with micelle vaccine or NS for three times at 7 days interval. […]

[1] = In vivo imaging (IVIS) of lymphatic trafficking; set-up: species or system C57BL/6 mice; settings: subcutaneous at tail base, 15 μmol FITC, 0 to 168 h
Excerpt: C57BL/6 mice were subcutaneously injected with 15 μmol (FITC) of different FITC-labeled formulations (FITC, F-L, F-M) at tail base. The diffusion from injection sites was detected using an in vivo imaging system (IVIS) (Caliper life Sciences, Hopkinton, MA, USA). Spectrum unmixing technique was applied to reducing the effect of native tissue auto-fluorescence, separating detecting fluorescence and analyzing fluorescence diffusion. For imaging on inguinal and axillary LNs, LNs were excised and imaged at indicated time points. An image set (Ex: 500, Em: 540, f4, bin 8, 2 s) was collected. Living Image software Version 4.4 (Caliper Life Sciences, Waltham, MA, USA) was used to acquire and quantify the fluorescence imaging data sets.

DC2.4 cells = assay: Confocal imaging of intracellular localisation of RhB-labeled peptides; format: cell-based, mouse (C57BL/6); settings: 20 μM RhB-labeled peptide, 37 °C, 30 min (legend; text says 2 h), LysoTracker Green or EGFP-Rab5, confocal, three independent experiments
Description: DC2.4 cells or EGFP-Rab5 expressing DC2.4 cells were seeded in 35 mm glass-bottom plates. After overnight culture, different formulations of indicated Rhodamine-labeled peptides (20 μM) were added and incubated at 37 °C for 30 min or 2 h. Then, 100 nM Lyso-Tracker Green or ER-Tracker Green (Life Technologies, Grand Island, NY, USA) was added and incubated for 5 or 20 min, respectively. The processes of PEG-PE inserting into cell membranes, peptide internalization and the co-localization of peptides with early endosome (Rab5), lysosome or ER were imaged using a confocal microscope LSM-700 (ZEISS, Germany).
TC-1, a tumor cell line transformed from C57BL/6 primar y mouse lung cells, was kindly provided b y Dr. Xuemei Xu (Institute of Basic Medical Sciences Chinese Academ y of Medical Sciences & School of Basic Medicine, Peking Union Medical College, Beijing, China). DC2.4, an immortalized DC cell line derived from C57BL/6 mice, was kindl y provided by Dr. Li Tang (Ke y Laborator y of Protein Engineering, Academ y of Military Medical Sciences, Beijing, China). RAW 264.7, a macrophage like cell line derived from BALB/c mice, was purchased from the Type Culture Collection of the Chinese Academ y of Sciences (Shanghai, China). MC38 is a murine colon adenocarcinoma cell line. MC38- OVA was sorted and subcloned after MC38 cells were stable transduced with retrovirus expressing mouse […]–O T I.
B16-F10 murine melanoma cell line was originally obtained from ATCC, catalog no.
CRL-6475. All cells were cultured in complete RPMI1640 medium according to […]
Preparation of PE G-PE micellized antigenic peptides
Briefl y, peptides (HPV16 E7 43-62 , O VA 250-264 , sCT) or Rhodamine labeled peptides (RhB-peptide) were dissolved in methanol, respectivel y. Then the three peptides were respectively mixed with corresponding amount PEG 2000 -PE or FITC labeled PEG 2000 -PE(FITC-PP) which was dissolved in chloroform in a 1/10 molar ratio of peptide/PEG-PE. Then the peptide containing micelle were prepared as described in […]

TLR4 [2] = target: T1, TLR4 (Mus musculus, UniProt Q9JHF9+Q9QUK6); assay: MPLA activity assay (TNF-α ELISA); format: cell-based, mouse (RAW264.7 cells); settings: RAW264.7 cells, 2 h, mean±s.d. n=4
T1 construct: endogenous in cells; host or cells: RAW264.7 (mouse macrophage-like cell line)
T1 sequence (Q9JHF9 19-160): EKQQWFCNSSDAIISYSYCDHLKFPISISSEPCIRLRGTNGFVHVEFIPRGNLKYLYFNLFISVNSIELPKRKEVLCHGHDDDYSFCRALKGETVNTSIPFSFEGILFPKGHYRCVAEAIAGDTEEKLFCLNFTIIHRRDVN
T1 sequence (Q9QUK6 26-835): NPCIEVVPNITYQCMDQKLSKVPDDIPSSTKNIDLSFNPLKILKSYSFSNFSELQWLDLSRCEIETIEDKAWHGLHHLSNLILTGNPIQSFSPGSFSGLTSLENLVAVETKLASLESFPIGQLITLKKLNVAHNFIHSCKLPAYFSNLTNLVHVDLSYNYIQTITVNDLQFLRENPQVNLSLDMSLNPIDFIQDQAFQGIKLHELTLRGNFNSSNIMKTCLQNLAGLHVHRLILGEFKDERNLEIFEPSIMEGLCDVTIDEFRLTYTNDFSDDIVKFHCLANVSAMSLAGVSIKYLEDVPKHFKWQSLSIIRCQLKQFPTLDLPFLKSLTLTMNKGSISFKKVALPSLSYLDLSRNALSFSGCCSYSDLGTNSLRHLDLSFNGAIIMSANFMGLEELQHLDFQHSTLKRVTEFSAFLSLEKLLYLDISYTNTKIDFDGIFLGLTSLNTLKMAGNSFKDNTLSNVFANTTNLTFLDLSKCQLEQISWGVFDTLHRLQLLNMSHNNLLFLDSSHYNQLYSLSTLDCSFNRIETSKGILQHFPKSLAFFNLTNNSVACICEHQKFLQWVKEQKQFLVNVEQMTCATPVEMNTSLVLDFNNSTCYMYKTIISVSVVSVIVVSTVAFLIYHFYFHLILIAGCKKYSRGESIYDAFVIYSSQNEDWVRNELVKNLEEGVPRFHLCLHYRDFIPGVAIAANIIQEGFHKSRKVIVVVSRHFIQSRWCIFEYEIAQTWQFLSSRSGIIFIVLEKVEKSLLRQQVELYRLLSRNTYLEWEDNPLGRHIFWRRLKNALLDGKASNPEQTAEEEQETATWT
Description: (§1) 0.5 mg/ml with deionized water. Particle sizes were shown as intensity-w eight ed diameters. The values were repo rted as the mean ± standard deviation (SD) based on more than three individual measurements performed in triplicate.
(§2) […] RAW264.7 cells were seeded in 24-well plates overnight. Then, the cells were treated with 10, 100, 1000ng/ml MPLA, M-MPLA, Lipo/MPLA, PLA/MPLA, or PEG 2000 -DPG (1,2-dipalmitate-sn-gl yc e r o -3- O-[(polyethylene glycol)-2000]) micellized MPLA (DP-M-MP LA), PEG 2000 -L-DPG (1,2-dipalmitate-sn-gl yc e r o -3-(6-amido-2-aminohexanoyl ox y)-N-[(polyethylene glycol)-2000]) micellized MPLA (N-M-MPLA), respectively for 2 h prior to harvesting the supernatant. TLR4 activation was measured by the cumulative production of TNF-α using the mouse TNF-α ELISA kit (eBios cience, San Diego, CA, USA).
(§3) M-MPL A activity assay in serum f ree mediu m or under LBP-blocking condition RAW264.7 cells were seeded and cultured overnight. Then the cells were either treated (1) with s erum-free medium (S FM) or (2) with LBP-blocking pepti de. (1): The cells were washed with SFM three times before experiment, then treated with 100ng/ml MP LA, M-MP LA, or LPS in the p resen ce o r abs ence of serum respectivel y; (2):The cells were treated with or without LBPK95A (LBPK95A sequence:
(§4) added and incubated for 2h prior to harvesting the supernatant. TLR4 activation was […]

TLR4 [3] = target: T1, TLR4; assay: M-MPLA activity assay in serum free medium or under LBP-blocking condition; format: cell-based, mouse (RAW264.7 cells); settings: RAW264.7 cells, 2 h, serum-free medium or 100 μg/ml LBPK95A, ELISA
Description: as §1, §2, §3, §4

[4] = cited from earlier work
Excerpt: Both MPLA and LPS have very low critical micelle concentration to tend to form the micelle at 10^−9 mol concentration. Only their monomers can bind to the TLR4/MD-2 heterodimers, and after binding, two TLR4/MD-2 heterodimers form the TLR4/MD-2 heterotetramers for signaling transduction. As a chaperon, LBP in serum can induce disassembly of MPLA and LPS, and then transfer them with CD14 to their receptors (Supplementary Figure S3A; [36]). […] However, as a detoxic form of LPS, the adjuvant activity is also attenuated. […] One reason of PEG-PE micelles accounting for these may be its monomerization of MPLA. MPLA, as well as LPS, has very low critical micelle concentration (~10^−9 M), thus are usually present as aggregates [[32], ...

TLR4/MD-2 = target: T2, TLR4/MD-2 (Mus musculus, UniProt Q9JHF9+Q9QUK6); assay: TLR4/MD-2 heterotetramer formation detection (MTS510 staining); format: cell-based, mouse (RAW264.7 cells); settings: RAW264.7 cells, 100 ng/ml, 15 min, 37 °C, flow cytometry
T2 construct: endogenous in cells; host or cells: RAW264.7 (mouse macrophage-like cell line)
T2 sequence (Q9JHF9 19-160): as the sequence (Q9JHF9 19-160) above
T2 sequence (Q9QUK6 26-835): as the sequence (Q9QUK6 26-835) above
Description: measured as describ ed ab ove.
TLR4/MD-2 heterotetramer forma tion detecti on RAW264.7 cells were stimulated with 100ng/ml MPLA, M+MPLA, M -MPLA, or LPS for 15min at 37℃. Then the treated cells were put on ice and washed with PBS.
After blocking with anti- FcγR mAb (2.4G2), the cells were incubated with one of the following antibodies: MTS510 PE, Rat IgG2a K isotype control PE. Finally, the cells were anal yz ed b y flow cyt ometr y (Calibur, BD Bioscience).
Bone marrow dendritic cells (BMDC) g enera tion
BMDCs are generated as described previously 2. Briefly, bone marrow (BM) cells were collected from tibias and femurs of female C57BL/6 mice. At da y 0, 2×10^6 BM cells were cultured in 100mm plate with 10ml complete RPMI 1640 medium containing 200 U/ml rmGM-CSF (PeproTech, Rocky Hill, NJ). At day 3, another 10 ml RPMI 1640 medium containing 200U/ml rmGM-CSF were added. At day 6, the immature BMDCs were collected and read y to us e.
BMDCs or splenocytes from C57BL/6 mice were seeded in 96-well plates and cultured in the presence of 100 ng/ml different MPLA formulations (MPLA, M+MP LA, M- MPLA), or 10 μg empt y PEG -PE micelle. For RNA detection, BMDCs were collected 1h after stimulation. For protein detection, the supernatants were […]

[5] = Circular dichroism (CD) spectroscopy of secondary structure; format: physicochemical; settings: free peptide or PEG-PE micellized peptide

Compound: N.N.[Cl][Pt][Cl] [cisplatin]
- Mice remaining tumor-free at 3 months after treatment (TC-1 cells): none

Compound: Fluorescein isothiocyanate [FITC]
- Diffusion from the injection site [1]: mostly stayed and largely retained around the injection sites even 7 days post injection

Compound: GQAEPDRAHYNIVTFCCKCD [E7, HPV16 E7_43-62 antigenic peptide, RhB-labeled for imaging]
- Intracellular location of RhB-labeled peptide relative to lysosomes / endosomes (DC2.4 cells): contained within lysosomes

Compound: Monophosphoryl lipid A [MPLA]
- MPLA concentration generating a comparable level of TNF-α (TLR4 [2]): 1 000 ng ml^−1
- TNF-α secretion in serum-free medium (without LBP) or with LBP-blocking peptide (TLR4 [3]): could not efficiently stimulate macrophage to secret TNF-α
- Critical micelle concentration [4]: ~ 10^−9 M
- Critical micelle concentration (concentration at which micelles tend to form) [4]: 10^−9 mol

Compound: SGLEQLESIINFEKL [OVA peptide, OVA250-264 antigenic peptide]
- Intracellular location of RhB-labeled peptide relative to lysosomes / endosomes (DC2.4 cells): largely outside lysosomes

Compound: lipopolysaccharide [LPS]
- TNF-α secretion in serum-free medium (without LBP) or with LBP-blocking peptide (TLR4 [3]): could not efficiently stimulate macrophage to secret TNF-α
- MTS510 mAb reactive surface TLR4/MD-2 complex (TLR4/MD-2): dramatically downregulated MTS510 mAb reactive surface TLR4/MD-2 complex
- Critical micelle concentration [4]: ~ 10^−9 M
- Critical micelle concentration (concentration at which micelles tend to form) [4]: 10^−9 mol

Compound: salmon calcitonin [sCT]
- Intracellular location of RhB-labeled peptide relative to lysosomes / endosomes (DC2.4 cells): contained within lysosomes
- Secondary structure by CD spectroscopy [5]: non-α-helical peptides
